Experiment: xn = mol fraction of the nth substance listed
Settings: Fluid (supercritical or subcritical phases), Vibrating wire viscometry, x2 = 0.5174

C [methane] + O=C=O
Settings | viscosity [mPa·s]
229 K, 14501 kPa | 0.073
229.3 K, 12980 kPa | 0.0703
229.4 K, 11654 kPa | 0.06874
229.5 K, 10963 kPa | 0.0679
229.5 K, 13698 kPa | 0.0721
229.5 K, 14200 kPa | 0.07231
229.6 K, 10168 kPa | 0.06646
257.8 K, 19252 kPa | 0.05496
257.8 K, 21263 kPa | 0.0575
257.9 K, 12165 kPa | 0.04274
257.9 K, 14190 kPa | 0.047
257.9 K, 18239 kPa | 0.0541
257.9 K, 22280 kPa | 0.05903
257.9 K, 23289 kPa | 0.05979
258 K, 16209 kPa | 0.05083
287.7 K, 7818 kPa | 0.01711
287.7 K, 8134 kPa | 0.01748
287.7 K, 11663 kPa | 0.02384
287.7 K, 12567 kPa | 0.02598
287.7 K, 13512 kPa | 0.02819
287.7 K, 14605 kPa | 0.03051
287.7 K, 15897 kPa | 0.03311
287.7 K, 17472 kPa | 0.03599
287.7 K, 19398 kPa | 0.0392
287.7 K, 21895 kPa | 0.04255
287.7 K, 25061 kPa | 0.04633
287.8 K, 8895 kPa | 0.01845
287.8 K, 9137 kPa | 0.01889
287.8 K, 9866 kPa | 0.02011
287.8 K, 31033 kPa | 0.0527
288.1 K, 1438 kPa | 0.01349
288.1 K, 1553 kPa | 0.0135
288.1 K, 2042 kPa | 0.01369
288.1 K, 2553 kPa | 0.01388
288.1 K, 3073 kPa | 0.01402
288.1 K, 3570 kPa | 0.01425
288.1 K, 5123 kPa | 0.01498
288.1 K, 5405 kPa | 0.01519
288.2 K, 4066 kPa | 0.01442
288.2 K, 4594 kPa | 0.01468
288.2 K, 6609 kPa | 0.01593
288.2 K, 7116 kPa | 0.01636
288.2 K, 9140 kPa | 0.01892
288.2 K, 11159 kPa | 0.02281
288.2 K, 13180 kPa | 0.02721
288.2 K, 15201 kPa | 0.03146
288.2 K, 19138 kPa | 0.03829
288.2 K, 21458 kPa | 0.04192
288.2 K, 23984 kPa | 0.04512
288.2 K, 25172 kPa | 0.04621
288.2 K, 26302 kPa | 0.04748
317.8 K, 2056 kPa | 0.01479
317.9 K, 1389 kPa | 0.01457
317.9 K, 1545 kPa | 0.01462
318 K, 2566 kPa | 0.015
318 K, 3069 kPa | 0.01518
318 K, 4578 kPa | 0.01571
318 K, 5085 kPa | 0.01587
318 K, 6297 kPa | 0.01646
318.1 K, 6520 kPa | 0.01648
318.1 K, 7151 kPa | 0.01689
318.1 K, 7212 kPa | 0.01688
318.1 K, 8226 kPa | 0.01751
318.1 K, 9335 kPa | 0.0182
318.1 K, 10457 kPa | 0.01916
318.1 K, 11460 kPa | 0.02013
318.1 K, 12573 kPa | 0.02123
318.1 K, 13584 kPa | 0.02235
318.1 K, 14713 kPa | 0.02377
318.1 K, 15239 kPa | 0.02432
318.1 K, 15724 kPa | 0.02502
318.1 K, 16254 kPa | 0.02562
318.1 K, 17842 kPa | 0.02789
318.1 K, 20300 kPa | 0.03122
318.1 K, 21518 kPa | 0.03236
318.1 K, 22819 kPa | 0.03405
318.1 K, 24011 kPa | 0.03506
318.1 K, 25249 kPa | 0.03636
318.1 K, 26412 kPa | 0.03781
318.1 K, 27392 kPa | 0.03909
318.1 K, 28884 kPa | 0.04047
318.1 K, 30364 kPa | 0.04187
318.1 K, 31857 kPa | 0.04341
347.7 K, 4516 kPa | 0.01665
347.8 K, 2161 kPa | 0.01599
347.8 K, 2764 kPa | 0.01606
347.8 K, 2964 kPa | 0.01612
347.8 K, 3169 kPa | 0.01615
347.8 K, 3278 kPa | 0.01616
347.8 K, 3485 kPa | 0.01631
347.8 K, 4003 kPa | 0.01648
347.8 K, 5009 kPa | 0.01682
347.8 K, 5509 kPa | 0.01696
347.8 K, 5514 kPa | 0.01701
347.8 K, 6032 kPa | 0.01714
347.8 K, 6512 kPa | 0.01731
347.8 K, 7016 kPa | 0.01746
347.8 K, 7538 kPa | 0.01766
347.8 K, 8039 kPa | 0.01795
347.8 K, 8528 kPa | 0.01812
347.8 K, 9051 kPa | 0.01836
347.8 K, 10090 kPa | 0.0189
347.8 K, 10617 kPa | 0.01914
347.8 K, 11109 kPa | 0.01948
347.8 K, 11596 kPa | 0.01976
347.8 K, 12118 kPa | 0.02008
347.8 K, 12605 kPa | 0.02043
347.8 K, 13204 kPa | 0.02102
347.8 K, 13713 kPa | 0.02132
347.8 K, 14226 kPa | 0.02172
347.8 K, 14732 kPa | 0.02205
347.8 K, 16775 kPa | 0.02364
347.8 K, 18782 kPa | 0.02533
347.8 K, 20792 kPa | 0.02732
347.9 K, 1555 kPa | 0.01586
347.9 K, 1745 kPa | 0.01584
347.9 K, 1956 kPa | 0.01592
347.9 K, 2361 kPa | 0.01592
347.9 K, 2566 kPa | 0.01603
